ChEMBL document CHEMBL3045881, “(Hetero)aroyl esters of 2-(N-phthalimido)ethanol and analogues: parallel synthesis, anti-HIV-1 activity and cytotoxicity” (Med Chem Res, 2010)
Activity calls are given as the source filed them. The calls are words filed in the database; no cut-off is given here.

Key:
[1] = tested on: Human immunodeficiency virus 1; test: Antiviral activity against wild type Human immunodeficiency virus 1 infected human MT4 cells assessed as inhibition of virus-induced cytopathic effect after 4 days by MTT assay; format: functional, organism-based; settings: Human immunodeficiency virus 1, MT4, 96 h
[2] = Cytotoxicity against mock infected Homo sapiens (human) MT4 cells assessed as cell viability by MTT assay; format: cell-based
[3] = tested on: Human immunodeficiency virus 1; test: Antiviral activity against Human immunodeficiency virus 1 harboring reverse transcriptase K103N, Y181C double mutant infected human MT4 assessed as inhibition of virus-induced cytopathic effect after 4 days by MTT assay; format: functional, organism-based
[4] = tested on: Human immunodeficiency virus 1; test: Antiviral activity against Human immunodeficiency virus 1 harboring reverse transcriptase Y181C mutant infected human MT4 assessed as inhibition of virus-induced cytopathic effect after 4 days by MTT assay; format: functional, organism-based; settings: Human immunodeficiency virus 1, 96 h
[5] = tested on: Human immunodeficiency virus 1; test: Antiviral activity against efavirenz-resistant Human immunodeficiency virus 1 harboring reverse transcriptase K103R, V179D, P225H triple mutant infected human MT4 assessed as inhibition of virus-induced cytopathic effect after 4 days by MTT assay; format: functional, organism-based

Row | SMILES | EC50 [1] [µM] | CC50 [2] [µM] | Activity [3] | EC50 [4] [µM] | Activity [5]
1 | O=C(OCCN1C(=O)[C@H]2CCCC[C@H]2C1=O)c1ccc(Cl)c([N+](=O)[O-])c1 | > 28 | 28 | – | – | –
2 | O=C(OCCN1C(=O)c2ccccc2C1=O)c1ccccc1Cl | 80 | > 100 | – | – | –
3 | O=C(OCCN1C(=O)c2ccccc2C1=O)c1ccc([N+](=O)[O-])cc1Cl | 15 | > 100 | – | – | –
4 | O=C(OCCN1C(=O)c2ccccc2C1=O)c1cccnc1Cl | > 100 | > 100 | – | – | –
5 | O=C(OCCN1C(=O)c2ccccc2C1=O)c1cc(Cl)ccc1F | > 100 | > 100 | – | – | –
6 | CC(CN1C(=O)c2ccccc2C1=O)OC(=O)c1cc(F)ccc1F (racemic) | > 100 | > 100 | – | – | –
7 | CCC(C(=O)OCCN1C(=O)c2ccccc2C1=O)c1ccccc1 (racemic) | 16 | > 100 | – | – | –
8 | O=C(OCCN1C(=O)c2ccccc2C1=O)c1cc(F)ccc1Br | 35 | > 100 | inactive | 90 | inactive
9 | O=C(OCCCN1C(=O)c2ccccc2C1=O)c1ccc(Cl)c([N+](=O)[O-])c1 | > 100 | > 100 | – | – | –
10 | O=C(OCN1C(=O)c2ccccc2C1=O)c1cc(F)ccc1F | > 100 | > 100 | – | – | –
11 | Cc1ccc2c(c1)C(=O)N(CCOC(=O)c1ccc(Cl)c([N+](=O)[O-])c1)C2=O | > 81 | 81 | – | – | –
12 | Cc1ccc2c(c1)C(=O)N(CCOC(=O)c1cc(F)ccc1F)C2=O | > 100 | > 100 | – | – | –
13 | O=C(OCCN1C(=O)c2ccccc2C1=O)c1cc([N+](=O)[O-])ccc1F | > 100 | > 100 | – | – | –
14 | O=C(OCCN1C(=O)c2ccccc2C1=O)c1ccc(F)cc1F | > 100 | > 100 | – | – | –
15 | O=C(OCCS(=O)(=O)c1ccccc1)c1ccc(Cl)c(Cl)c1 | > 19 | 19 | – | – | –
16 | O=C(OCCN1C(=O)c2ccccc2C1=O)c1ccc(Cl)nc1 | > 100 | > 100 | – | – | –
17 | O=C(OCCN1C(=O)c2ccccc2C1=O)c1ccccc1[N+](=O)[O-] | 80 | > 100 | – | – | –
18 | CC(C)(C)c1ccc(C(=O)OCCN2C(=O)c3ccccc3C2=O)cc1 | > 92 | 92 | – | – | –
19 | O=C(OC1Cc2cccc3cccc1c23)c1ccc(Cl)c(Cl)c1 (racemic) | > 100 | 42 | – | – | –
20 | O=C(OCCN1C(=O)c2ccccc2C1=O)c1ccc(Br)cc1 | > 100 | > 100 | – | – | –
21 | O=C(OCCN1C(=O)c2ccccc2C1=O)c1cc(F)ccc1F | 0.2 | > 100 | – | – | –
22 | Cc1cccc(C(=O)OCCN2C(=O)c3ccccc3C2=O)c1 | 82 | > 100 | – | – | –
23 | O=C(OCCN1C(=O)[C@H]2CCCC[C@H]2C1=O)c1cc(F)ccc1F | > 100 | > 100 | – | – | –
24 | O=C(OCCN1C(=O)c2ccccc2C1=O)c1ccc(Cl)c([N+](=O)[O-])c1 | 0.7 | > 100 | – | – | –
25 | O=C(/C=C/c1ccccc1)OCCN1C(=O)c2ccccc2C1=O | 50 | > 100 | – | – | –
26 | O=C(OCCN1C(=O)c2ccccc2C1=O)c1ccccc1 | 55 | > 100 | – | – | –
27 | O=C(OCCN1C(=O)c2ccccc2C1=O)c1cccc([N+](=O)[O-])c1 | 69 | > 100 | – | – | –
28 | O=C(OCCN1C(=O)c2ccccc2C1=O)c1c(F)cccc1F | 49 | > 100 | – | – | –
